# Source: US20260263410A1, “USE OF CALCIUM SENSING RECEPTOR ANTAGONISTS FOR TREATING OCULAR DISORDERS” (THE REGENTS OF THE UNIVERSITY OF CALIFORNIA, priority 2023, published 2026)
# Values joined by “and” are separate entries in the source; they are usually repeats but may differ in a detail not shown here. Equal entries are not always repeated.
# Tests used:
# CFTR = test: OSPD, forskolin / CFTRinh-172-induced change (CFTR-mediated Cl− secretion); format: in vivo, mice
# From the text: Using pharmacological activators and inhibitors, OSPD allows studying activities of various ion channels/transporters in the ocular surface.^12 In these studies, baseline OSPD is established using a high Cl^− solution that mimics the tear fihn. OSPD changes induced by amiloride (ENaC inhibitor) indicates Na^+ transport via ENaC. Similarly, OSPD changes induced by forskolin (cAMP agonist) and CFTRinh-172 (CFTR inhibitor) indicates Cl^− secretion via cAMP-activated Cl^− channels and particularly CFTR. Lastly, OSPD changes induced by Ca^2+ agonist ATP indicates Cl^− secretion mediated by CaCCs.
# Sequential perfusion of the ocular surface with solutions containing amiloride (ENaC inhibitor), forskolin (cAMP agonist), CFTRinh-172 (CFTR inhibitor), and ATP (Ca^2+ agonist) thus allows determining activities of ENaC, CFTR, and CaCC ion channels, respectively (FIG. 4A).
# Using CaSR antagonist NPS-2143 in the OSPD experiments confirmed the hypothesis. Perfusion of ocular surface with 30 μM NPS-2143 led to large hyperpolarization (−13 mV), which was 70% of subsequently applied maximal forskolin-induced hyperpolarization after which cAMP agonist forskolin had minimal further secretory effect (FIGS. 6A and 6B). […]
# Ocular surface potential difference (OSPD) and tear fluid volume measurements were performed in mice with topically applied cinacalcet (CaSR activator) and NPS-2143 (CaSR inhibitor). […] As described previously,^12, 14, 15 open-circuit transepithelial potential differences were measured in response to serial perfusions of different isoosmolar (310 mOsm/kg H2O) solutions over the ocular surface at 5-10 ml/min. […] Each solution was perfused onto the ocular surface using a gravity perfusion system (ALA Scientific: Farmingdale, NY, USA) for 1-3 minutes until a stable OSPD reading was obtained.
# [1] = Tear fluid volume by endodontic absorbent paper point tear test (EAPPTT); format: in vivo, BALB/c mice
# Experimental: Endodontic absorbent paper point tear tests (EAPPTT) […] PBS with 30 μM NPS-2143 (or 0.2% DMSO control) in both eyes. […] The wetted length was measured using a millimeter-scale ruler viewed under a magnifying glass. All mice were kept at ambient conditions (approximately 50% humidity and 21° C.) and provided unrestricted access to food and water.
Structure (SMILES),reversal of effect by CFTR inhibitor CFTRinh-172 (CFTR; 10 μM CFTRinh-172 after NPS-2143 and forskolin),Cl− secretory effect in mouse ocular surface (CFTR; applied topically),"increase in tear fluid volume ([1]; single dose topical 0.001% or 30 μM, for at least eight hours)","increase in tear fluid volume ([1]; topical 0.001% or 30 μM, single 10 μL dose, as early as 15 minutes after treatment)","inhibition of CFTR activity (lower CFTRinh-172 response) (CFTR; 30 μM cinacalcet, 10 μM CFTRinh-172, concentration-dependent)"
"CC(C)(Cc1ccc2ccccc2c1)NC[C@@H](O)COc1cccc(Cl)c1C#N [NPS-2143, 2-chloro-6-[(2R)-3-([1,1-dimethyl-2-(2-naphthalenyl)ethyl]amino)-2-hydroxypropoxy]benzonitrile]",partially reversed,large Cl^− secretory current,> 60%,60% and ~ 60%,
C[C@@H](NCCCc1cccc(C(F)(F)F)c1)c1cccc2ccccc12 [cinacalcet],,,,,up to 90%
